{
  "source": "patent US20220025003A1",
  "about": "“REAGENTS AND METHODS FOR CONTROLLING PROTEIN FUNCTION AND INTERACTION” (University of Washington, priority 2018, published 2022)",
  "key": {"NS3a inactive": {"system": "NS3a inactive", "test": "ANR-GST pulldown with immobilized biotinylated NS3a", "format": "binding, hepatitis C virus", "conditions": "10 μM danoprevir, 5 μM ANR-GST", "description": "Pierce high-capacity streptavidin beads (Thermo-Fisher #P120359) were prepared by washing three times with Buffer PDA (TBS+0.05% tween+0.5 mg/mL BSA). For each condition and each replicate, beads were washed and incubated separately. The wash was performed by adding 200 μL Buffer PDA to 30 μL of a 50/50 bead slurry, inverting to mix, and spinning down (2500×g for 2 min). The supernatant was removed by pipetting, and the wash was repeated two more times to end with a 50/50 slurry of beads in wash buffer.\nPurified biotinylated NS3a was prepared at a 50× final concentration and 10 μL were added to a 490 μL 50/50 slurry of streptavidin beads and Buffer PD for final NS3a concentration of 125 nM. Beads were incubated and rotated at 4° C. After one hour, beads were harvested and washed three times as described previously, ending in a 50/50 bead/buffer slurry. ANR was added to all samples at a final concentration of 5 μM. For the danoprevir treated samples, danoprevir was added to a final concentration of 10 μM. Buffer PD was added to a final volume of 500 μL, and the beads were incubated and rotated at 4° C. After 1 hour, beads were pelleted and washed three times in Buffer FDB (TBS buffer+0.05% Tween) with 5 minute incubations between washes on a rotator at 4° C. To obtain final bound protein, beads were pelleted and supernatant was aspirated, resulting in a final volume of beads of 20 μL. […]"}, "[1]": {"system": "mCherry reporter gene in HEK293T cells", "test": "Chemically-disruptable Gal4(DBD)-NS3a(H1)/ANR-VPR transcriptional regulation", "format": "cell-based", "conditions": "1 μM drug, 24 hours", "description": "Cells were subsequently transfected with 1 μg of the Gal4 reporter plasmid (UAS-mCherry™/CMV-Gal4-NS3a(H1)-P2A-ANR-Myc-BFP-VPR-NLS) in OptiMem™. […] Supernatant was subsequently removed and the cells were re-suspended in 400 μL DPBS and analyzed on a FACS LSRII (BD Biosciences).\nFor Gal4/NS3a-CDP mediated transcriptional activation FACS experiments, 10,000 single cell events were collected for each of the samples run. […] The gathered FACS data were analyzed using FlowJo™ (v.10.1)."}, "[2]": {"system": "RAS/ERK pathway in HEK293 cells", "test": "Activation of NS3a-CDAR, phospho-ERK blot", "format": "cell-based", "conditions": "10 μM drug, 60 min", "description": "18-24 hours prior to transfection, 3.0×10^5 HEK293 cells were plated onto poly-D-lysine 12 well plates. Immediately prior to transfection, media was aspirated and cells were washed with 1 mL of pre-warmed (37° C.) PBS, then serum starved with FBS-free DMEM. Following serum starvation, cells were transfected with 1 μg of FLAG-tagged NS3a-CDAR, BH3-NS3a-CDAR, or an empty pCDNA5 vector. Transfected cells were allowed to serum stave for 18-20 hours prior to drug treatment. For drug treatment, serum-free media was prepared with DMSO or 10 μM of a drug. Media was aspirated, washed once with pre-warmed DPBS, then treated with drug/DMSO media for the requisite amount of time. Media was subsequently aspirated and the cells were washed twice with 1 mL chilled PBS, then lysed with 75 μL Mod. RIPA buffer (50 mM Tris, pH 7.8, 1% IGEPAL CA-630, 150 mM NaCl, 1 mM EDTA, 2 mM Na3VO4, 30 mM NaF, Pierce Protease Inhibitor Tablet). Cleared lysates were subjected to SDS-PAGE and transferred to nitrocellulose. Blocking and antibody incubations were done in TBS with 0.1% Tween-20 (v/v) and blocking buffer (Odyssey). Primary antibodies were all purchased from Cell Signaling Technologies and were diluted as follows: Total ERK (1:2500, #9107), phosphorylated ERK (1:2500, #4370), FLAG (1:2,500, #D6W5B). Blots were washed three times in TBS with 0.1% Tween-20. Antibody binding was detected by using near-infrared-dye-conjugated secondary antibodies and visualized on the LI-COR Odyssey scanner. Blots were quantified via densitometry with Image Studio (LI-COR)."}, "NS3a in NIH3T3 cells": {"system": "NS3a in NIH3T3 cells", "test": "Confocal microscopy for colocalization analysis (fixed cells)", "format": "cell-based", "conditions": "5 μM drug"}, "CXCR4 [3]": {"system": "CXCR4", "test": "Danoprevir/grazoprevir titrations to linearize CXCR4 or CD95 expression", "format": "cell-based, human", "conditions": "increasing proportion of grazoprevir added to danoprevir titration", "from_the_text": "Data were fit to four-parameter log dose-response curves (fitting EC50, upper and lower baselines, and Hill coefficient) in Graphpad Prism 5."}, "CXCR4 [4]": {"system": "CXCR4", "test": "dCas9 transcription control, immunofluorescence FACS", "format": "cell-based, human", "conditions": "CXCR4 and CD95"}, "GFP reporter": {"system": "GFP reporter", "test": "Combined CXCR4 and GFP induction with scRNAs, NS3a-VPR", "format": "cell-based", "conditions": "read-out: EC50 (GFP expression)"}, "NS3a active": {"molecular_target": "T1, NS3a active (Hepatitis C virus genotype 1b, UniProt Q9WMX2, A1176V/E1056D/L1047A/L1120M/Q1112P/R1052K/V1062L/V1196I)", "T1 construct": "Avi-His6-NS3a; made in house; host or cells: E. coli BL21 (DE3)", "test": "Fluorescence polarization competition assay with FAM-ANR", "format": "binding", "description": "(§1) Fluorescence polarization competition assays were used to determine the ability of danoprevir to displace ANR. A 75 nM solution of NS3a in FP-Buffer was incubated with 50 nM FAM-ANR in a black 96-well plate for 1 hour in the dark. 3-fold serial dilutions of danoprevir were prepared in FP-Buffer such that, when added to the NS3a/FAM-ANR solution, the highest concentration of danoprevir tested was 10 μM. Plates were incubated for 1 hour in the dark. Fluorescence polarization was measured at 22° C. on a Perkin Elmer EnVision™ fluorometer (excitation, 495 nm; emission 520 nm). Each measurement was carried out in triplicate. Anisotropy values were obtained and a nonlinear regression model was used to fit curves with GraphPad Prism."}, "NS3a inactive (S139A)": {"molecular_target": "T2, NS3a inactive (S139A) (Hepatitis C virus genotype 1b, UniProt Q9WMX2, A1176V/E1056D/L1047A/L1120M/Q1112P/R1052K/S1165A/V1062L/V1196I)", "T2 construct": "Avi-His6-NS3a; the text calls the FP protein non-biotinylated) (N); made in house; host or cells: E. coli BL21 (DE3)", "test": "Fluorescence polarization competition assay with FAM-ANR", "format": "binding", "conditions": "75 nM NS3a, read-out: apparent IC50", "description": "as §1"}},
  "data": [
    {"smiles": "CC(C)(C)OC(=O)N[C@H]1CCCCC/C=C\\[C@@H]2C[C@@]2(C(=O)NS(=O)(=O)C2CC2)NC(=O)[C@@H]2C[C@@H](OC(=O)N3Cc4cccc(F)c4C3)CN2C1=O", "note": "[danoprevir]", "values": [
      {"measurement": "pull down of ANR-GST by immobilized NS3a inactive", "setting": "NS3a inactive", "result": "inhibits the ability of immobilized NS3a inactive to pull down ANR-GST"},
      {"measurement": "mCherry expression after drug treatment", "setting": "[1]", "result": "decreased mCherry™ expression to background levels"},
      {"measurement": "phospho-ERK levels in cells expressing NS3a-CDAR", "setting": "[2]", "result": "robust increase in phospho-ERK levels"},
      {"measurement": "Colocalization of DNCR2-EGFP and GNCR1-BFP with NS3a-mCherry-CAAX", "setting": "NS3a in NIH3T3 cells", "result": "DNCR2/NS3a colocalization"},
      {"measurement": "Localization of NS3a-mCherry with Tom20-BFP-ANR and DNCR2-EGFP-CAAX", "setting": "NS3a in NIH3T3 cells", "result": "moved to the plasma membrane"},
      {"measurement": "Colocalization of NS3a-mCherry with ANR-BFP-CAAX or NLS-DNCR2-EGFP", "setting": "NS3a in NIH3T3 cells; 15 min", "result": "recruited NS3a to the nucleus with NLS-DNCR2-EGFP"},
      {"measurement": "Colocalization of NS3a-mCherry with GNCR1-BFP-CAAX or Tom20-DNCR2-EGFP", "setting": "NS3a in NIH3T3 cells; 15 min", "result": "led to colocalization with mitochondria-targeted Tom20-DNCR2-EGFP"},
      {"measurement": "linear output range of CXCR4 expression", "setting": "CXCR4 [3]", "result": "3 orders of magnitude"},
      {"measurement": "effect on gene expression in the absence of the guide RNA", "setting": "CXCR4 [4]", "result": "no effect"},
      {"measurement": "EC50", "setting": "GFP reporter", "result": 0.00079, "unit": "µM"},
      {"measurement": "displacement of ANR from NS3a", "setting": "NS3a active", "result": "potently and dose-dependently displace ANR from NS3a"},
      {"measurement": "IC50", "setting": "NS3a active; NS3a active, 75 nM NS3a, FAM-ANR, read-out: apparent IC50", "result": "< 0.075", "unit": "µM"},
      {"measurement": "IC50", "setting": "NS3a inactive (S139A)", "result": "< 0.075", "unit": "µM"}
    ]}
  ]
}
